Laboratory results reported in the NIST ThermoML archive (doi:10.1007/s10765-013-1526-8).
± gives the expanded uncertainty stated by the source.

How the values were obtained:
[1] = refractive index (Na D-line) (dimensionless); xn = mol fraction of the nth substance listed; settings: 101 kPa, Liquid
[2] = xn = mol fraction of the nth substance listed; settings: 298.15 K, 101 kPa, Liquid; for speed of sound: Sing-around technique in a fixed-path interferometer

Question: With `CCCCC(CC)CO` (stereo not given) [2-ethyl-1-hexanol] + c1ccccc1 as the compound, how does the refractive index ([1]; 298.15 K, x2 = 0) read?
Answer: 1.4287 ± 0.0019

Question: What about the refractive index ([1]; 298.15 K, x2 = 0.0606) of the same compound?
Answer: 1.4332 ± 0.0019

Question: And the refractive index ([1]; 298.15 K, x2 = 0.1203)?
Answer: 1.4376 ± 0.0019

Question: What about the refractive index ([1]; 298.15 K, x2 = 0.1798) of the same compound?
Answer: 1.4418 ± 0.0019

Question: And the refractive index ([1]; 298.15 K, x2 = 0.2384)?
Answer: 1.4463 ± 0.0019

Question: And the refractive index ([1]; 298.15 K, x2 = 0.3132)?
Answer: 1.4519 ± 0.0019

Question: And the refractive index ([1]; 298.15 K, x2 = 0.3915)?
Answer: 1.4577 ± 0.0019

Question: And the refractive index ([1]; 298.15 K, x2 = 0.4515)?
Answer: 1.4624 ± 0.0019

Question: And the refractive index ([1]; 298.15 K, x2 = 0.526)?
Answer: 1.468 ± 0.0019

Question: And the refractive index ([1]; 298.15 K, x2 = 0.5849)?
Answer: 1.4726 ± 0.0019

Question: And the refractive index ([1]; 298.15 K, x2 = 0.6557)?
Answer: 1.4778 ± 0.0019

Question: What about the refractive index ([1]; 298.15 K, x2 = 0.726) of the same compound?
Answer: 1.4829 ± 0.0019

Question: What about the refractive index ([1]; 298.15 K, x2 = 0.7937) of the same compound?
Answer: 1.4877 ± 0.0019

Question: And the refractive index ([1]; 298.15 K, x2 = 0.8592)?
Answer: 1.492 ± 0.0019

Question: And the refractive index ([1]; 298.15 K, x2 = 0.9299)?
Answer: 1.4953 ± 0.0019

Question: What about the refractive index ([1]; 303.15 K, x2 = 0) of the same compound?
Answer: 1.4266 ± 0.0019

Question: And the refractive index ([1]; 303.15 K, x2 = 0.0606)?
Answer: 1.4312 ± 0.0019

Question: And the refractive index ([1]; 303.15 K, x2 = 0.1203)?
Answer: 1.4355 ± 0.0019

Question: And the refractive index ([1]; 303.15 K, x2 = 0.1798)?
Answer: 1.4397 ± 0.0019

Question: And the refractive index ([1]; 303.15 K, x2 = 0.2384)?
Answer: 1.4442 ± 0.0019

Question: What about the refractive index ([1]; 303.15 K, x2 = 0.3132) of the same compound?
Answer: 1.4499 ± 0.0019

Question: What about the refractive index ([1]; 303.15 K, x2 = 0.3915) of the same compound?
Answer: 1.4557 ± 0.0019

Question: And the refractive index ([1]; 303.15 K, x2 = 0.4515)?
Answer: 1.4604 ± 0.0019

Question: And the refractive index ([1]; 303.15 K, x2 = 0.526)?
Answer: 1.4661 ± 0.0019

Question: What about the refractive index ([1]; 303.15 K, x2 = 0.5849) of the same compound?
Answer: 1.4708 ± 0.0019

Question: And the refractive index ([1]; 303.15 K, x2 = 0.6557)?
Answer: 1.4761 ± 0.0019

Question: And the refractive index ([1]; 303.15 K, x2 = 0.726)?
Answer: 1.4811 ± 0.0019

Question: What about the refractive index ([1]; 303.15 K, x2 = 0.7937) of the same compound?
Answer: 1.4858 ± 0.0019

Question: What about the refractive index ([1]; 303.15 K, x2 = 0.8592) of the same compound?
Answer: 1.4899 ± 0.0019

Question: What about the refractive index ([1]; 303.15 K, x2 = 0.9299) of the same compound?
Answer: 1.4934 ± 0.0019

Question: And the refractive index ([1]; 308.15 K, x2 = 0)?
Answer: 1.4245 ± 0.0019

Question: What about the refractive index ([1]; 308.15 K, x2 = 0.0606) of the same compound?
Answer: 1.4292 ± 0.0019

Question: And the refractive index ([1]; 308.15 K, x2 = 0.1203)?
Answer: 1.4335 ± 0.0019

Question: What about the refractive index ([1]; 308.15 K, x2 = 0.1798) of the same compound?
Answer: 1.4378 ± 0.0019

Question: What about the refractive index ([1]; 308.15 K, x2 = 0.2384) of the same compound?
Answer: 1.4423 ± 0.0019

Question: And the refractive index ([1]; 308.15 K, x2 = 0.3132)?
Answer: 1.448 ± 0.0019

Question: What about the refractive index ([1]; 308.15 K, x2 = 0.3915) of the same compound?
Answer: 1.4539 ± 0.0019

Question: What about the refractive index ([1]; 308.15 K, x2 = 0.4515) of the same compound?
Answer: 1.4585 ± 0.0019

Question: And the refractive index ([1]; 308.15 K, x2 = 0.526)?
Answer: 1.4642 ± 0.0019

Question: And the refractive index ([1]; 308.15 K, x2 = 0.5849)?
Answer: 1.4689 ± 0.0019

Question: And the refractive index ([1]; 308.15 K, x2 = 0.6557)?
Answer: 1.4743 ± 0.0019

Question: And the refractive index ([1]; 308.15 K, x2 = 0.726)?
Answer: 1.4793 ± 0.0019

Question: And the refractive index ([1]; 308.15 K, x2 = 0.7937)?
Answer: 1.4839 ± 0.0019

Question: What about the refractive index ([1]; 308.15 K, x2 = 0.8592) of the same compound?
Answer: 1.4879 ± 0.0019

Question: What about the refractive index ([1]; 308.15 K, x2 = 0.9299) of the same compound?
Answer: 1.4913 ± 0.0019

Question: And the speed of sound ([2]; x2 = 0)?
Answer: 1319 ± 10 m/s

Question: What about the speed of sound ([2]; x2 = 0.0606) of the same compound?
Answer: 1313 ± 10 m/s

Question: What about the speed of sound ([2]; x2 = 0.1203) of the same compound?
Answer: 1308 ± 10 m/s

Question: And the speed of sound ([2]; x2 = 0.1798)?
Answer: 1304 ± 10 m/s

Question: What about the speed of sound ([2]; x2 = 0.2384) of the same compound?
Answer: 1299 ± 10 m/s

Question: And the speed of sound ([2]; x2 = 0.3132)?
Answer: 1293 ± 10 m/s

Question: What about the speed of sound ([2]; x2 = 0.3915) of the same compound?
Answer: 1288 ± 10 m/s

Question: What about the speed of sound ([2]; x2 = 0.4515) of the same compound?
Answer: 1283 ± 10 m/s

Question: And the speed of sound ([2]; x2 = 0.526)?
Answer: 1278 ± 10 m/s

Question: What about the speed of sound ([2]; x2 = 0.5849) of the same compound?
Answer: 1275 ± 10 m/s

Question: What about the speed of sound ([2]; x2 = 0.6557) of the same compound?
Answer: 1273 ± 10 m/s

Question: What about the speed of sound ([2]; x2 = 0.726) of the same compound?
Answer: 1272 ± 10 m/s

Question: And the speed of sound ([2]; x2 = 0.7937)?
Answer: 1273 ± 10 m/s

Question: What about the speed of sound ([2]; x2 = 0.8592) of the same compound?
Answer: 1276 ± 10 m/s

Question: And the speed of sound ([2]; x2 = 0.9299)?
Answer: 1284 ± 10 m/s

Question: What about the mass density ([2]; x2 = 0) of the same compound?
Answer: 829.07 ± 0.82 kg/m3

Question: And the viscosity ([2]; x2 = 0)?
Answer: 8.418 ± 0.65 mPa·s

Question: And the mass density ([2]; x2 = 0.0606)?
Answer: 829.89 ± 0.81 kg/m3

Question: And the viscosity ([2]; x2 = 0.0606)?
Answer: 7.185 ± 0.57 mPa·s

Question: What about the mass density ([2]; x2 = 0.1203) of the same compound?
Answer: 830.77 ± 0.81 kg/m3

Question: What about the viscosity ([2]; x2 = 0.1203) of the same compound?
Answer: 6.102 ± 0.5 mPa·s

Question: And the mass density ([2]; x2 = 0.1798)?
Answer: 831.79 ± 0.8 kg/m3

Question: What about the viscosity ([2]; x2 = 0.1798) of the same compound?
Answer: 5.153 ± 0.45 mPa·s

Question: What about the mass density ([2]; x2 = 0.2384) of the same compound?
Answer: 832.95 ± 0.8 kg/m3

Question: What about the viscosity ([2]; x2 = 0.2384) of the same compound?
Answer: 4.364 ± 0.38 mPa·s

Question: And the mass density ([2]; x2 = 0.3132)?
Answer: 834.73 ± 0.79 kg/m3

Question: And the viscosity ([2]; x2 = 0.3132)?
Answer: 3.469 ± 0.31 mPa·s

Question: What about the mass density ([2]; x2 = 0.3915) of the same compound?
Answer: 836.9 ± 0.78 kg/m3

Question: What about the viscosity ([2]; x2 = 0.3915) of the same compound?
Answer: 2.697 ± 0.24 mPa·s

Question: What about the mass density ([2]; x2 = 0.4515) of the same compound?
Answer: 838.87 ± 0.78 kg/m3

Question: And the viscosity ([2]; x2 = 0.4515)?
Answer: 2.222 ± 0.2 mPa·s

Question: And the mass density ([2]; x2 = 0.526)?
Answer: 841.73 ± 0.77 kg/m3

Question: What about the viscosity ([2]; x2 = 0.526) of the same compound?
Answer: 1.749 ± 0.16 mPa·s

Question: What about the mass density ([2]; x2 = 0.5849) of the same compound?
Answer: 844.27 ± 0.76 kg/m3

Question: And the viscosity ([2]; x2 = 0.5849)?
Answer: 1.474 ± 0.14 mPa·s

Question: What about the mass density ([2]; x2 = 0.6557) of the same compound?
Answer: 847.83 ± 0.74 kg/m3

Question: And the viscosity ([2]; x2 = 0.6557)?
Answer: 1.202 ± 0.12 mPa·s

Question: And the mass density ([2]; x2 = 0.726)?
Answer: 851.85 ± 0.73 kg/m3

Question: And the viscosity ([2]; x2 = 0.726)?
Answer: 1.008 ± 0.1 mPa·s

Question: And the mass density ([2]; x2 = 0.7937)?
Answer: 856.26 ± 0.72 kg/m3

Question: And the viscosity ([2]; x2 = 0.7937)?
Answer: 0.866 ± 0.087 mPa·s

Question: What about the mass density ([2]; x2 = 0.8592) of the same compound?
Answer: 861.07 ± 0.7 kg/m3

Question: What about the viscosity ([2]; x2 = 0.8592) of the same compound?
Answer: 0.764 ± 0.078 mPa·s

Question: What about the mass density ([2]; x2 = 0.9299) of the same compound?
Answer: 867.04 ± 0.68 kg/m3

Question: What about the viscosity ([2]; x2 = 0.9299) of the same compound?
Answer: 0.68 ± 0.071 mPa·s
